Reference: patent US20240130998A1, “ANALGESIA FROM ORAL PROCAINE A FORGOTTEN VOLTAGE GATED SODIUM CHANNEL BLOCKER” (priority 2023, published 2024)
Several values for one entry are separate records, joined by “and”; a condition that tells them apart may be missing. Identical values can stand only once. Like-named read-outs stand apart in the source and are kept apart here.

Columns and labels:
[1] = target: plasma esterase (Homo sapiens, UniProt P06276); conditions: cited from earlier work
[2] = cited from earlier work
[3] = tested on: central pore of sodium channels; conditions: cited from earlier work
[4] = tested on: procaine induced convulsion; conditions: diazepam 0.3 mg/kg intravenous; procaine 100-150 mg/kg intraperitoneally; animal model; cited from earlier work
[5] = Pharmacokinetics of intravenous procaine; assay type: in vivo; conditions: 95 mg bolus IV, 70 kg human, calculated
Procedure: In a 70 kg human, with an average central compartment procaine blood volume of distribution of 0.57 L/kg procaine or 40.0. L, an initial blood level of 2.36 μg/ml is obtained with a 95 mg bolus IV procaine administration.[16]

[6] = Ion trapping effects of charged and uncharged procaine (pH=pKa+log B/BH+)
Text: As the molecule transits from the blood to neural cytoplasm, procaine becomes more charged and less lipophilic within the cytoplasm of the neuron, and the concentration of the active charge species increases. The charged active species is essentially trapped in the cytoplasm, only being able to exit after hydrolysis to PABA and DEAE or through distribution.
The intraneural pH of human dorsal root ganglia is not known, but it is generally accepted that intraneural pH decreases with neural activity. The pH of cervical ganglia of a rodent is reported as 7.30-6.51, and the typical resting or “steady-state” pH within a hippocampal neuron is reported as ˜7.03-7.46,[30]

[7] = tested on: patients with chronic pain; conditions: cited from earlier work
[8] = tested on: patients with acute or chronic pain; conditions: cited from earlier work
[9] = tested on: dorsal root ganglia neurons; conditions: neurons with an abundance of Nav 1.8 channels; cited from earlier work
[10] = in vivo, iv; cited from earlier work
[11] = in vivo, po; cited from earlier work

Sequence of plasma esterase (P06276 29-602): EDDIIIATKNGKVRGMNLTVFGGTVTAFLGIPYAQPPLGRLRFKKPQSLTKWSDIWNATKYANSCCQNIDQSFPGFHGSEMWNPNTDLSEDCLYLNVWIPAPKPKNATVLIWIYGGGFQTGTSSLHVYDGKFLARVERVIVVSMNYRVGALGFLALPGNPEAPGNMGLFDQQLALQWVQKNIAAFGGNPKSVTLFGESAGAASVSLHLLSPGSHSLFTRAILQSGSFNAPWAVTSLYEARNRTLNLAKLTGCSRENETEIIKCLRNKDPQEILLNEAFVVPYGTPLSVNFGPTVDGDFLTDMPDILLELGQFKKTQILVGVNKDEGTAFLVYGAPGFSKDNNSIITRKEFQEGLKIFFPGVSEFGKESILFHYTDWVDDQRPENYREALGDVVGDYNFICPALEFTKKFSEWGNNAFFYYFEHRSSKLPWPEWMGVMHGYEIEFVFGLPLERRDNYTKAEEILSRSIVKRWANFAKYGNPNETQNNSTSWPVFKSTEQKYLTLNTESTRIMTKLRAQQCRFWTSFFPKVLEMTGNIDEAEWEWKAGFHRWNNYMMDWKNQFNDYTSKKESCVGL

CCN(CC)CCOC(=O)c1ccc(N)cc1Cl [2-chloroprocaine]
Rate of hydrolysis by plasma esterase relative to procaine [1]: 4 ×

CCN(CC)CCO [DEAE, diethylaminoethanol]
pKa [2]: ~10.1

Cc1cccc(C)c1NC(=O)CN [GX, glycinexylidide]
Potency relative to the parent drug lidocaine [3]: nearly ineffective

CCNCC(=O)Nc1c(C)cccc1C [MEGX, monoethylglycinexylidide]
Potency relative to the parent drug lidocaine [3]: 80%

Nc1ccc(C(=O)O)cc1 [PABA, para-aminobenzoic acid]
pKa [2]: ~4.6

CN1C(=O)CN=C(c2ccccc2)c2cc(Cl)ccc21 [diazepam]
Effect on procaine induced convulsion [4]: aborted procaine induced convulsion

CCN(CC)CCOC(=O)c1ccc(N)cc1 [procaine]
Initial blood level [5]: 2.36 µg/mL
[BH+]/[B] ([6]; Blood, pH 7.4): 32
[BH+]/[B] ([6]; CSF, pH 7.32): 38
[BH+]/[B] ([6]; Ganglia or intraneural, pH 7.30-6.51): 40-245
[BH+]/[B] ([6]; Interstitial, pH 7.4): 32
Predicted intraneural [BH+] relative to blood [BH+] ([6]; ion trapping and diminished CSF pseudocholinesterase activity, without Michaelis-Menten kinetics): ≤ 750 times
Factor of increase of [BH+]/[B] from blood to intraneural cytoplasm ([6]; ion trapping only): at least 7.5
Efficacy (patients successfully treated) ([7]; Balfour 1951, oral 80 mg with Metamucil, chronic dysphagia): 8
Efficacy (patients with relief / patients treated) ([7]; Beinhauer 1954, oral 3000 mg/day, herpes zoster or burning tongue syndrome): 9/14
Efficacy (patients with analgesia / patients treated) ([7]; Klein 1953, oral 450 mg TID, chronic pain from arthritis): 38/50
Efficacy (patients with analgesia / patients treated) ([7]; Koch 1989, oral 200 mg BID, procaine double salt complex, chronic pain from rheumatoid arthritis): 29/30
Efficacy (patients with analgesia / patients treated) ([7]; Kupperman 1957, oral 1000 mg TID with meals, arthritis): no analgesia and 0/50
Efficacy (patients with chronic pain relief / patients treated) ([7]; Traut 1952, oral 3000 mg/day in divided doses after meals, arthritis): 5/32
Relief of pain and discomfort ([8]; Betcher, IV, 92 patients, various orthopedic conditions): adequate relief
Analgesia ([8]; Kahl, IV infusion 2000 mg over 24 hours, acute pancreatic pain): poor analgesia
Analgesia ([8]; Keats, IV, approximate dose 370 mg, 53 patients, acute post-operative pain): inadequate analgesia
Chronic pain relief (patients) ([8]; Shanbrom, 500 mg to 1000 mg IV, postherpetic neuralgia): 13/16
Relief of acute pain ([8]; Zeluff, IV 1000 mg, 3 patients, traumatic military injuries): dramatic relief
Minimum concentration for block of dorsal root ganglia neurons [9]: 10 µM
Blood level considered therapeutic [10]: 10000 ng/mL
Peak plasma procaine levels [11]: 0.2-3.1 mg percent
